Test results reported in US20180200257A1, “METHODS FOR THE TREATMENT OF INFLAMMATORY DISORDERS” (Galapagos NV, priority 2015, published 2018).

Test system: Subjects With Active Crohn's Disease With Evidence of Mucosal Ulceration
Experiment: Study 3 - Alanine Aminotransferase (ALT) levels
Format: in vivo, human
Source text: Double-Blind, Randomized, Placebo-Controlled, Multi-Centre Study to Investigate the Efficacy and Safety of Compound 1 in Subjects With Active Crohn's Disease With Evidence of Mucosal Ulceration. This is a double-blind, randomized, placebo-controlled, multi-centre Phase 2 study to investigate the efficacy and safety of Compound 1 administered once daily for the treatment of active CD with evidence of mucosal ulceration. The pharmacokinetics (including a PK substudy) and pharmacodynamics of Compound 1 and metabolite in CD will also be characterised. A total of 180 eligible subjects will be randomized to receive Compound 1 or placebo in addition to their stable background treatment (eg, corticosteroids, aminosalicylates, or CD-related antibiotics). The study will consist of 2 parts, with total treatment duration of 20 weeks. Randomization in Part 1 will be stratified according the subject's previous anti-TNF exposure/response, CRP level at Screening, and oral corticosteroid use at visit Day −1. After the first 10 weeks of treatment in Part 1, patients will be re-randomized for Part 2 as shown in the diagram below and will be stratified according to the subject's clinical response, previous anti-TNF exposure/response, and oral corticosteroid use at visit Day -1. [table] ALT levels determination is available at Quest Diagnostics, Clinical Trials, Quest House, 125-135 Staines Road, Hounslow, Middlesex, TW3 3JB, United Kingdom under Catalogue n#84460. ALT catalyzes the exchange of the amino group of alanine with the oxogroup of 2-ketoglutarate to form pyruvate and glutamate. In the presence of lactic dehydrogenase, pyruvate reacts with NADH to form NAD+, measured spectrophotometrically. Guidelines for the ALT value have been issued by the association for Clinical Biochemistry and Laboratory Medicine, 130-132 Tooley Street LONDON SE1 2TU, united Kingdom, wherein the ALT value should be below 34 U/l in Female and below 52 U/L in male.

[1] = 10 weeks results, 200 mg q.d., week 2
[2] = 10 weeks results, 200 mg q.d., week 4
[3] = 10 weeks results, 200 mg q.d., week 6
[4] = 10 weeks results, 200 mg q.d., week 10
[5] = 20 weeks results, 200 mg q.d. week 0 to 10, to 100 mg q.d. week 10 to 20, week 2
[6] = 20 weeks results, 200 mg q.d. week 0 to 10, to 100 mg q.d. week 10 to 20, week 4
[7] = 20 weeks results, 200 mg q.d. week 0 to 10, to 100 mg q.d. week 10 to 20, week 6
[8] = 20 weeks results, 200 mg q.d. week 0 to 10, to 100 mg q.d. week 10 to 20, week 10
[9] = 20 weeks results, 200 mg q.d. week 0 to 10, to 100 mg q.d. week 10 to 20, week 12
[10] = 20 weeks results, 200 mg q.d. week 0 to 10, to 100 mg q.d. week 10 to 20, week 16
[11] = 20 weeks results, 200 mg q.d. week 0 to 10, to 100 mg q.d. week 10 to 20, week 20
[12] = 20 weeks results, 200 mg q.d. week 0 to 10, to placebo week 10 to 20, week 2
[13] = 20 weeks results, 200 mg q.d. week 0 to 10, to placebo week 10 to 20, week 4
[14] = 20 weeks results, 200 mg q.d. week 0 to 10, to placebo week 10 to 20, week 6
[15] = 20 weeks results, 200 mg q.d. week 0 to 10, to placebo week 10 to 20, week 10
[16] = 20 weeks results, 200 mg q.d. week 0 to 10, to placebo week 10 to 20, week 12
[17] = 20 weeks results, 200 mg q.d. week 0 to 10, to placebo week 10 to 20, week 16
[18] = 20 weeks results, 200 mg q.d. week 0 to 10, to placebo week 10 to 20, week 20
[19] = 20 weeks results, continued 200 mg q.d., week 2
[20] = 20 weeks results, continued 200 mg q.d., week 4
[21] = 20 weeks results, continued 200 mg q.d., week 6
[22] = 20 weeks results, continued 200 mg q.d., week 10
[23] = 20 weeks results, continued 200 mg q.d., week 12
[24] = 20 weeks results, continued 200 mg q.d., week 16
[25] = 20 weeks results, continued 200 mg q.d., week 20
[26] = 20 weeks results, placebo week 0 to 10, to 100 mg q.d. week 10 to 20, week 12
[27] = 20 weeks results, placebo week 0 to 10, to 100 mg q.d. week 10 to 20, week 16
[28] = 20 weeks results, placebo week 0 to 10, to 100 mg q.d. week 10 to 20, week 20

## O=C(Nc1nc2cccc(-c3ccc(CN4CCS(=O)(=O)CC4)cc3)n2n1)C1CC1 [Compound 1, cyclopropanecarboxylic acid {5-[4-(1,1-dioxo-thiomorpholin-4-ylmethyl)-phenyl]-[1,2,4]triazolo[1,5-a]pyridin-2-yl}-amide]
[1]
  Study 3 - ALT Mean CFB: 0.0 IU/L
  Study 3 - ALT Mean percentage CFB: 8.3%
[2]
  Study 3 - ALT Mean CFB: −0.6 IU/L
  Study 3 - ALT Mean percentage CFB: 5.8%
[3]
  Study 3 - ALT Mean CFB: −1.2 IU/L
  Study 3 - ALT Mean percentage CFB: 3.1%
[4]
  Study 3 - ALT Mean CFB: 1.6 IU/L
  Study 3 - ALT Mean percentage CFB: 24.4%
[5]
  Study 3 - ALT Mean CFB: −2.03 IU/L
  Study 3 - ALT Mean percentage CFB: −4.84%
[6]
  Study 3 - ALT Mean CFB: −1.93 IU/L
  Study 3 - ALT Mean percentage CFB: −3.24%
[7]
  Study 3 - ALT Mean CFB: −1.60 IU/L
  Study 3 - ALT Mean percentage CFB: −0.60%
[8]
  Study 3 - ALT Mean CFB: −0.50 IU/L
  Study 3 - ALT Mean percentage CFB: 5.92%
[9]
  Study 3 - ALT Mean CFB: 0.03 IU/L
  Study 3 - ALT Mean percentage CFB: 3.56%
[10]
  Study 3 - ALT Mean CFB: 0.21 IU/L
  Study 3 - ALT Mean percentage CFB: 8.83%
[11]
  Study 3 - ALT Mean CFB: 6.15 IU/L
  Study 3 - ALT Mean percentage CFB: 38.62%
[12]
  Study 3 - ALT Mean CFB: −2.30 IU/L
  Study 3 - ALT Mean percentage CFB: 3.63%
[13]
  Study 3 - ALT Mean CFB: −2.04 IU/L
  Study 3 - ALT Mean percentage CFB: 8.87%
[14]
  Study 3 - ALT Mean CFB: −3.78 IU/L
  Study 3 - ALT Mean percentage CFB: 1.03%
[15]
  Study 3 - ALT Mean CFB: −1.48 IU/L
  Study 3 - ALT Mean percentage CFB: 12.60%
[16]
  Study 3 - ALT Mean CFB: 1.48 IU/L
  Study 3 - ALT Mean percentage CFB: 16.15%
[17]
  Study 3 - ALT Mean CFB: 1.90 IU/L
  Study 3 - ALT Mean percentage CFB: 23.87%
[18]
  Study 3 - ALT Mean CFB: −0.38 IU/L
  Study 3 - ALT Mean percentage CFB: 17.82%
[19]
  Study 3 - ALT Mean CFB: 1.46 IU/L
  Study 3 - ALT Mean percentage CFB: 14.82%
[20]
  Study 3 - ALT Mean CFB: 0.36 IU/L
  Study 3 - ALT Mean percentage CFB: 8.36%
[21]
  Study 3 - ALT Mean CFB: −0.17 IU/L
  Study 3 - ALT Mean percentage CFB: 5.47%
[22]
  Study 3 - ALT Mean CFB: 3.75 IU/L
  Study 3 - ALT Mean percentage CFB: 38.09%
[23]
  Study 3 - ALT Mean CFB: 3.00 IU/L
  Study 3 - ALT Mean percentage CFB: 26.61%
[24]
  Study 3 - ALT Mean CFB: 4.04 IU/L
  Study 3 - ALT Mean percentage CFB: 33.15%
[25]
  Study 3 - ALT Mean CFB: 2.53 IU/L
  Study 3 - ALT Mean percentage CFB: 22.15%
[26]
  Study 3 - ALT Mean CFB: −0.55 IU/L
  Study 3 - ALT Mean percentage CFB: 10.24%
[27]
  Study 3 - ALT Mean CFB: −1.95 IU/L
  Study 3 - ALT Mean percentage CFB: 2.75%
[28]
  Study 3 - ALT Mean CFB: −2.05 IU/L
  Study 3 - ALT Mean percentage CFB: 4.96%
